From patent US8536201B2, “Pesticidal arylpyrrolidines” (Bayer Intellectual Property GmbH, priority 2009, dated 2013)

Tests used:
Type in all cases: in vivo
Spodoptera litura [1] = experiment: Tobacco cutworm (Spodoptera litura) larvae using artificial diet; settings: 20 ppm, 3rd-instar larvae
Protocol: BIOLOGICAL TEST EXAMPLE 1.2
Tobacco Cutworm (Spodoptera litura) Larvae Using Artificial Diet
2.3 g of artificial diet powder is put into a PET cup (7.5 cm diameter, 4 cm depth). The powder was leveled to make a layer in the bottom of the cup. 5 ml of a chemical solution is poured onto the powder and spread uniformly. The cup with treated diet powder is placed quiet to let the diet jell. Into each testing cup five 3rd-instar larvae were released. The testing cup is closed with the lid and placed in a temperature-controlled room at 25° C. and 50-60% R.H., 16L8D lighting conditions.
The mortality in % was determined according to the following criteria:
1 larva dead: 20% Efficacy
5 larvae dead: 100% Efficacy

Aulacophora femoralis = experiment: Cucurbit leaf beetle (Aulacophora femoralis) cucumber leaf dip test; settings: second instar larvae, treated cucumber leaves, after 7 days
Protocol: BIOLOGICAL TEST EXAMPLE 3
Cucurbit Leaf Beetle (Aulacophora femoralis)
Leaves of cucumber were immersed in the test solution at the appropriate concentration, and the leaves were dried in air. The leaves were then put in a plastic cup containing sterilized black soil and five Aulacophora femoralis at second instar larvae were released in the cup. The cups were placed in a temperature-controlled chamber at 25° C. After 7 days, the number of dead larvae was counted, and thus the insecticidal activity was calculated. An insecticidal activity of 100% means that all larvae were killed, whereas an insecticidal activity of 0% means that no larva was killed.

Spodoptera litura [2] = experiment: Tobacco cutworm (Spodoptera litura) larvae, sweet potato leaf dip test; settings: 20 ppm; third instar larvae, treated sweet potato leaves, after 7 days
Protocol: Unless not mentioned otherwise, the test solutions were prepared as follows:
Solvent: dimethyl formamide, 3 parts by weight
Emulsifier: polyoxyethylene alkyl phenyl ether, 1 part by weight
To prepare the test solution, 1 part by weight of an active compound is mixed with the above-mentioned amount of solvent containing the above-mentioned amount of emulsifier, and the mixture is diluted with water to the desired concentration.
BIOLOGICAL TEST EXAMPLE 1.1
Tobacco Cutworm (Spodoptera litura) Larvae
Leaves of sweet potato were immersed in the test solution at the appropriate concentration, and the leaves were dried in air. The leaves were then placed in a petri dish having a diameter of 9 cm, and ten Spodoptera litura at third instar larvae were released therein. The petri dishes were placed in a temperature-controlled chamber at 25° C. After 2 days and 4 days more sweet potato leaves were added. After 7 days, the number of dead larvae was counted to calculate the insecticidal activity. An insecticidal activity of 100% means that all larvae were killed, whereas an insecticidal activity of 0% means that no larva was killed. In the current test, the results of two petri dishes for each treatment were averaged.

Ctenocephalides felis = Ctenocephalides felis test (CTECFE), blood feeding; settings: 100 ppm in cattle blood; adult unfed fleas, after 2 days
Protocol: BIOLOGICAL TEST EXAMPLE 7
Ctenocephalides felis—Test (CTECFE)
Solvent: Dimethyl Sulfoxide
To produce a suitable preparation of active compound, 10 mg of active compound are dissolved in 0.5 ml solvent, and the concentrate is diluted with cattle blood to the desired concentration. Approximately 20 adult unfed (Ctenocephalides felis) are placed in flea chambers. The blood chamber, sealed with parafilm on the bottom, are filled with cattle blood supplied with compound solution and placed on top of the flea chamber, so that the fleas are able to suck the blood. The blood chamber is heated to 37° C. whereas the flea chamber is kept at room temperature.
After 2 days mortality in % is determined. 100% means that all the fleas have been killed; 0% means that none of the fleas have been killed.

Tetranychus urticae = experiment: Two-spotted spider mite Tetranychus urticae spray test on kidney bean; settings: adult mites, after 7 days
Protocol: BIOLOGICAL TEST EXAMPLE 2
Two-Spotted Spider Mite Tetranychus urticae
50 to 100 adult mites of Tetranychus urticae were inoculated to leaves of kidney bean at two-leaf stage planted in a pot of 6 cm in diameter. After one day, test solution at the appropriate concentration was sprayed thereon in a sufficient amount using a spray gun. After the spraying, the plant pot was placed inside a greenhouse, and after 7 days, the acaricidal activity was calculated. An acaricidal activity of 100% means that all mites were killed, an acaricidal activity of 0% means that no mite was killed.

SMILES	insecticidal activity (Spodoptera litura [1]) [%]	insecticidal activity (Aulacophora femoralis; 100 ppm) [%]	insecticidal activity (Spodoptera litura [2]) [%]	activity (mortality in %) (Ctenocephalides felis) [%]	insecticidal activity (Aulacophora femoralis; 20 ppm) [%]	insecticidal activity (Tetranychus urticae; 100 ppm) [%]	insecticidal activity (Tetranychus urticae; 20 ppm) [%]
CC(=O)NC(C)c1ccc(N2CCC(c3cc(Cl)cc(Cl)c3)(C(F)(F)F)C2)cc1 (racemic) [Compound 1]	100	100	100	–	–	–	–
CCC(=O)NC(C)c1ccc(N2CCC(c3cc(Cl)cc(Cl)c3)(C(F)(F)F)C2)cc1 (racemic) [Compound 2]	100	–	100	95	100	100	–
CCC(=O)NC(C)c1ccc(N2CCC(c3cc(Cl)cc(C(F)(F)F)c3)(C(F)(F)F)C2)cc1 (racemic) [Compound 4]	100	–	100	–	100	–	100
CC(NC(=O)C1CC1)c1ccc(N2CCC(c3cc(Cl)cc(C(F)(F)F)c3)(C(F)(F)F)C2)cc1 (racemic) [Compound 5]	100	–	100	–	100	–	100
CC(=O)NC(C)c1ccc(N2CCC(c3cc(Cl)c(Cl)c(Cl)c3)(C(F)(F)F)C2)cc1 (racemic) [Compound 6]	100	–	100	–	–	–	100
CCC(=O)NC(C)c1ccc(N2CCC(c3cc(Cl)c(Cl)c(Cl)c3)(C(F)(F)F)C2)cc1 (racemic) [Compound 7]	100	100	100	–	–	–	100
CC(=O)NC(C)c1ccc(N2CCC(c3cc(C(F)(F)F)cc(C(F)(F)F)c3)(C(F)(F)F)C2)cc1 (racemic) [Compound 9]	100	–	100	–	–	–	–
CC(NC(=O)C1CC1)c1ccc(N2CCC(c3cc(C(F)(F)F)cc(C(F)(F)F)c3)(C(F)(F)F)C2)cc1 (racemic) [Compound 11]	100	–	100	–	100	–	100
CC(NC(=O)CC1CC1)c1ccc(N2CCC(c3cc(Cl)c(Cl)c(Cl)c3)(C(F)(F)F)C2)cc1 (racemic) [Compound 12]	100	–	–	95	–	–	100
CC(NC(=O)CC1CC1)c1ccc(N2CCC(c3cc(C(F)(F)F)cc(C(F)(F)F)c3)(C(F)(F)F)C2)cc1 (racemic) [Compound 13]	100	–	–	–	–	–	100
COCCC(=O)NC(C)c1ccc(N2CCC(c3cc(Cl)c(Cl)c(Cl)c3)(C(F)(F)F)C2)cc1 (racemic) [Compound 14]	100	100	–	90	–	–	100
CC(=O)N[C@@H](C)c1ccc(N2CCC(c3cc(Cl)cc(Cl)c3)(C(F)(F)F)C2)cc1 (stereo partly shown) [Compound 1-b]	100	–	100	–	100	100	–
CCC(=O)N[C@@H](C)c1ccc(N2CCC(c3cc(Cl)cc(Cl)c3)(C(F)(F)F)C2)cc1 (stereo partly shown) [Compound 2-b]	100	–	100	–	100	–	–
CC(=O)NC(C)c1ccc(N2CCC(c3cc(Cl)cc(Cl)c3)(C(F)(F)F)C2)cc1Cl (stereo not shown) [Compound 3-66, reference compound]	–	–	20	–	50	–	–
C[C@H](NC(=O)C1CC1)c1ccc(N2CCC(c3cc(Cl)cc(Cl)c3)(C(F)(F)F)C2)cc1 (stereo partly shown) [Compound 3-b]	100	–	100	–	100	–	100
CCC(=O)N[C@@H](C)c1ccc(N2CCC(c3cc(Cl)cc(C(F)(F)F)c3)(C(F)(F)F)C2)cc1 (stereo partly shown) [Compound 4-b]	100	–	100	–	100	–	100
C[C@H](NC(=O)C1CC1)c1ccc(N2CCC(c3cc(Cl)cc(C(F)(F)F)c3)(C(F)(F)F)C2)cc1 (stereo partly shown) [Compound 5-b]	100	–	100	–	100	–	100
CC(=O)N[C@@H](C)c1ccc(N2CCC(c3cc(Cl)c(Cl)c(Cl)c3)(C(F)(F)F)C2)cc1 (stereo partly shown) [Compound 6-b]	100	–	100	–	–	–	100
CCC(=O)N[C@H](C)c1ccc(N2CCC(c3cc(Cl)c(Cl)c(Cl)c3)(C(F)(F)F)C2)cc1 (stereo partly shown) [Compound 7-a]	–	100	–	80	–	–	–
CCC(=O)N[C@@H](C)c1ccc(N2CCC(c3cc(Cl)c(Cl)c(Cl)c3)(C(F)(F)F)C2)cc1 (stereo partly shown) [Compound 7-b]	100	–	100	–	100	–	100
C[C@H](NC(=O)C1CC1)c1ccc(N2CCC(c3cc(Cl)c(Cl)c(Cl)c3)(C(F)(F)F)C2)cc1 (stereo partly shown) [Compound 8-b]	100	–	100	95	100	–	100
CCC(=O)N[C@H](C)c1ccc(N2CCC(c3cc(C(F)(F)F)cc(C(F)(F)F)c3)(C(F)(F)F)C2)cc1 (stereo partly shown) [Compound 10-a]	–	–	–	90	100	–	–
CCC(=O)N[C@@H](C)c1ccc(N2CCC(c3cc(C(F)(F)F)cc(C(F)(F)F)c3)(C(F)(F)F)C2)cc1 (stereo partly shown) [Compound 10-b]	100	–	100	–	100	–	100
C[C@H](NC(=O)CC1CC1)c1ccc(N2CCC(c3cc(Cl)c(Cl)c(Cl)c3)(C(F)(F)F)C2)cc1 (stereo partly shown) [Compound 12-b]	100	100	–	–	–	–	100
C[C@H](NC(=O)CC1CC1)c1ccc(N2CCC(c3cc(C(F)(F)F)cc(C(F)(F)F)c3)(C(F)(F)F)C2)cc1 (stereo partly shown) [Compound 13-b]	100	100	–	–	–	–	100
COCCC(=O)N[C@@H](C)c1ccc(N2CCC(c3cc(Cl)c(Cl)c(Cl)c3)(C(F)(F)F)C2)cc1 (stereo partly shown) [Compound 14-b]	100	100	–	–	–	–	100
C[C@H](NC(=O)c1c(F)cc(F)cc1F)c1ccc(N2CCC(c3cc(C(F)(F)F)cc(C(F)(F)F)c3)(C(F)(F)F)C2)cc1 (stereo partly shown) [Compound 16-b]	100	–	–	–	100	–	100
C[C@H](NC(=O)C1CC1)c1ccc(N2CCC(c3cc(C(F)(F)F)nc(C(F)(F)F)c3)(C(F)(F)F)C2)cc1 (stereo partly drawn) [Compound 17-b, N-[(1S)-1-(4-{3-[2,6-bis(trifluoromethyl)pyridin-4-yl]-3-(trifluoromethyl)pyrrolidin-1-yl}phenyl)ethyl]cyclopropanecarboxamide]	100	–	–	–	100	–	100
